test: TarO Biochemical Enzymatic Assay: The TarO biochemical enzymatic assay is a liquid chromatography-mass spectroscopy (LC-MS) based end point assay that measures C55-P-P-GlcNAc (LIPID III) production. The TarO biochemical enzymatic assay was performed in a 384-well microtiter plate (Labcyte) with a reaction volume of 20 μl. The reaction mix contained 0.1 μgs/μl of TarO membrane preparation derived from MRSA COL (lysostaphin/lysozyme treated, centrifuged at 40K rpm, and re-suspended in 50 mM Tris pH 7.5, 10 mM MgCl2), 1500 μM UDP-GlcNAc, x 75 μM C55-P substrates in 83 mM Tris pH 8.0, 6.7 mM MgCl2, 6 mM CHAPS, and 8.3% DMSO buffer. The enzyme reactions were quenched by extraction in 40 μl of 1-pentanol containing 0.04 μM […] C55-PP-GlcNAc, which was used as an internal standard. A 10 μl volume of the quenched reaction mixture (pH≈3) from each well was injected onto a reversed-phase column (C4, 5 m, 2.1×50 mm, Thermo Scientific Biobacis-4) and eluted using a NH4Ac/H2O/MeOH gradient (solvent A: 10 mM NH4Ac in water, pH 5.6; solvent B: NH4Ac (1 M)-Isopropanol (1:90, v/v, pH 5.6). The HPLC conditions were as follows: 15% solvent B for 15 seconds followed by a gradient to 90% solvent B in 90 seconds; then solvent B was kept at 95% for 10 seconds followed by a gradient to 8% solvent B in 0.1 minute. The column was then equilibrated at 15% B for 1 minute before the next injection. The flow rate was kept constant at 600 μl/minute. Mass spectrometric detection was carried out in the negative-ion mode using selected reaction monitoring (SRM). Typical mass spectrometric conditions were as follows: heated capillary temperature, 210° C.; spray voltage, 2500 V; desolvation gas (N2), 40 l/h; auxiliary gas (N2), 35 l/h. Selected ion current (SIC) chromatograms of C55-PP-GlcNAc and internal standard 15C C55-PP-GlcNAc were plotted and integrated using LCQuan incorporated in Xcalibur software (ThermoFinnigan). The linearity of C55-PP-GlcNAc concentration versus mass spectrometric signal (AC55-PP-GlcNAc/A15C-C55-PP-GlcNAc) was determined with purified C55-PP-GlcNAc. The IC50 values were calculated using the nonlinear regression analysis (sigmoidal dose response fit allowing for a variable slope) of percent inhibition data with minimum and maximum values set to 0 and 100 percent.

Row | SMILES | IC50
1 | Cc1cccnc1CCNC(=O)N1C(=O)O[C@H](c2cc(C(F)(F)F)cc(C(F)(F)F)c2)[C@@H]1C | 1780 nM
2 | O=C(CCc1cncc2ccccc12)N1CC(c2cccc(F)c2F)OC1=O (centres undefined) | 1200 nM
3 | C[C@H]1[C@@H](c2cc(C(F)(F)F)cc(C(F)(F)F)c2)OC(=O)N1C(=O)CCc1cccc2sccc12 | 10 nM
4 | C[C@H]1[C@@H](c2cc(C(F)(F)F)cc(C(F)(F)F)c2)OC(=O)N1C(=O)NCc1cnc2c(c1)CCC2 | 1870 nM
5 | CC[C@H]1[C@@H](c2cc(C(F)(F)F)cc(C(F)(F)F)c2)OC(=O)N1C(=O)CCc1cncc2ccccc12 | 60 nM
6 | C[C@H]1[C@@H](c2cc(F)cc(C(F)(F)F)c2)OC(=O)N1C(=O)NCc1cccc2cc[nH]c12 | 60 nM
7 | C[C@H]1[C@@H](c2cc(F)cc(C(F)(F)F)c2)OC(=O)N1C(=O)NCc1cccc(N(C)C)c1 | 40 nM
8 | O=C(NCc1cncc2ccccc12)N1C(=O)O[C@H](c2cc(F)cc(C(F)(F)F)c2)[C@@H]1CO | 210 nM
9 | Cc1cnc(F)c(CNC(=O)N2C(=O)O[C@H](c3cc(C(F)(F)F)cc(C(F)(F)F)c3)[C@@H]2C)c1 | 610 nM
10 | O=C(CCc1cncc2ccccc12)N1CC(c2cc(C(F)(F)F)cc(C(F)(F)F)c2)OC1=O (centres undefined) | 420 nM
11 | O=C(CCc1cncc2ccccc12)N1C[C@H](c2cc(C(F)(F)F)cc(C(F)(F)F)c2)OC1=O | 540 nM
12 | C[C@H]1[C@@H](c2cc(C(F)(F)F)cc(C(F)(F)F)c2)OC(=O)N1C(=O)Cc1cccc2ccccc12 | 130 nM
13 | COc1cc([C@H]2OC(=O)N(C(=O)NCc3cncc4cccnc34)C[C@H]2C)cc(C(F)(F)F)c1 | 1260 nM
14 | C[C@H]1[C@@H](c2cc(Br)cc(C(F)(F)F)c2)OC(=O)N1C(=O)CCc1cncc2ccccc12 | 1490 nM
15 | C[C@H]1[C@@H](c2cc(F)cc(C(F)(F)F)c2)OC(=O)N1C(=O)NCc1cccc2c1OCCO2 | 50 nM
16 | Cc1cc(F)cc([C@H]2OC(=O)N(C(=O)CCc3cncc4ccccc34)[C@H]2C)c1 | 1880 nM
17 | C[C@@H]1NN(C(=O)NCc2cncc3ccccc23)C(=O)O[C@@H]1c1cc(F)cc(C(F)(F)F)c1 | 950 nM
18 | COc1ccccc1CNC(=O)N1C(=O)O[C@H](c2cccc(C(F)(F)F)c2)[C@@H]1C | 220 nM
19 | C[C@H]1[C@@H](c2cccc(C(C)(F)F)c2)OC(=O)N1C(=O)NCc1cncc2ccccc12 | 250 nM

Reference: ChEMBL document CHEMBL5728748 (2021)
